Assay results taken from US8993717B2, “Gadd45beta targeting agents” (Imperial Innovations Limited, priority 2009, dated 2015).
pIC50: −log10 of the molar value. Square brackets hold non-standard residues; d marks the D form. Peptide text beside a SMILES is read from it. * marks the point of attachment. Cbz = O=C(OCc1ccccc1)*

What was measured:
[1] = tested on: IKK/NF-κB, ERK and p38 pathways; test: Activation of IKK/NF-κB, ERK and p38 pathways in multiple myeloma cells; format: cell-based, human; settings: data not shown
Gadd45β/MKK7 interaction [2] = target: T1, Gadd45β/MKK7 interaction (Homo sapiens, UniProt O14733); test: ELISA competition assay after 48-hr pre-incubation with human serum at 37° C.; format: binding; settings: for stability after pre-incubation with human serum: result in words
T1 construct: The GST-fused full-length kinase was coated for 16 h at 4° C., at a concentration of 42 nM; made in house
T1 sequence (O14733 1-419): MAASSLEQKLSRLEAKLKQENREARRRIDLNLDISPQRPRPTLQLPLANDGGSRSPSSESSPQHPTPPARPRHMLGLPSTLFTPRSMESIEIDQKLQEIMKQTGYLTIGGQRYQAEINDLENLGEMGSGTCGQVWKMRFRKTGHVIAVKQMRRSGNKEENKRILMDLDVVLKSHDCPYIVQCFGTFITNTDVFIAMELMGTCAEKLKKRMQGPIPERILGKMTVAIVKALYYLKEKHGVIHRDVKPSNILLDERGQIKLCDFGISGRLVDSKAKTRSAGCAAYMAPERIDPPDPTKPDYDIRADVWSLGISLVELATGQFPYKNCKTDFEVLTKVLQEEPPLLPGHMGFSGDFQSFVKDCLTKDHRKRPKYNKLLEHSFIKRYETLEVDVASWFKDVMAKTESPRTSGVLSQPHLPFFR
Description: In FIG. 4, Gadd45β/MKK7 binding, competition ELISA assays were carried out to determine the stability of Z-conjugated D-tetrapeptides in human serum. […] ELISA were performed as described in FIG. 3 C. Briefly, 100 μl of 42 nM of recombinant GST-MKK7 in ELISA buffer (25 mM Tris pH 7.5, 150 mM NaCl, 1 mM DTT, 1 mM EDTA) were coated onto wells of 96-well plates by overnight incubation at 4° C. After blocking with 2% of NFDM for 1 hr at 37° C., plates were washed with TPBS, and then 21 nM of recombinant, biotinylated human (h)Gadd45β were added to the wells together with increasing concentrations of tetrapeptides which had either been subjected or had not been subjected to pre-incubation with human serum, as indicated. For a further discussion of the conditions used for the competition ELISA assay, the reader is directed to Tornatore et al 2008 JMB, 378: 97-111 and the references therein.

Gadd45β/MKK7 interaction [3] = target: T1, Gadd45β/MKK7 interaction; test: Co-immunoprecipitation assay, lysates of HEK-293 cells expressing HA-Gadd45β and FLAG-MKK7; format: binding; settings: 1 or 5 nM peptide
Description: Human Embryonic Kidney (HEK-293) were cultured in Dulbecco's modified Eagle's medium (DMEM) supplemented with 10% fetal calf serum (FCS), 100 units/ml penicillin, […] streptomycin, and 1% glutamine. HEK-293 cells (2.2×10^6) were seeded onto 10 cm^2 tissue-culture dishes, and the following day, were transfected with pcDNA-FLAG-MKK7 and pcDNA-HA-Gadd45β plasmids, using a standard Ca3(PO4)2 precipitation technique (Papa, S et al., (2004) Nat. Cell Biol. 6, 146-153). Forty-eight hours after transfection, the cells were washed once with PBS, then resuspended and incubated for 30 min at 4° C. in lysis buffer (20 mM HEPES, 350 mM NaCl, 20% glycerol, 1 mM MgCl2, 0.2 mM EGTA, 1 mM DTT, 1 mM Na3VO4, and 50 mM NaF) supplemented with protease inhibitors (1 mM phenylmethylsulfonylfluoride, 10 μM chymostatin, 2 μg/ml aprotinin, and 2 μg/ml leupeptin) with occasional gentle shaking. The lysed cells were collected and then centrifuged at 45,000×g for 40 min. The resulting cleared cell lysates were used for further analysis.
Immunoprecipitations were performed using essentially the same conditions described in Papa, S et al., (2004) Nat. Cell Biol. 6, 146-153 and the references therein, and an anti-FLAG antibody which precipitated FLAG-tagged MKK7. […]

Gadd45β-inhibited MKK7 = target: T2, Gadd45β-inhibited MKK7 (Homo sapiens, UniProt O14733); test: MKK7 kinase assay in the presence of recombinant hGadd45β; format: biochemical; settings: 1 nM or 5 nM peptide, 5 μM GST-hGadd45β
T2 construct: expressed in transfected cells; host or cells: HEK-293 (FLAG-MKK7); bacteria (GST-hGadd45β)
T2 sequence (O14733 1-419): T1 sequence (O14733 1-419)
Description: In FIG. 6, transient transfection of pcDNA-FLAG-MKK7 in HEK-293 cells was performed using the method of Ca3(PO4)2 precipitation, essentially as described in Papa, S et al., (2004) Nat. Cell Biol. 6, 146-153 and references therein. 36 hrs after transfection, the cells were treated with 100 ng/ml phorbol 12-myristate 13-acetate (PMA) and 1 μM ionomycin for 30 min at 37° C. Cell extracts were prepared as described in example 4 and used for immunoprecipitation with anti-FLAG antibodies (binding to FLAG-MKK7) as described in Papa, S et al., (2004) Nat. Cell Biol. 6, 146-153 and references therein. Briefly, 50 μg of cell lysate from PMA-ionomycin (P/D-treated or untreated, HEK-293 cells transiently expressing FLAG-MKK7 was incubated with 10 μl of anti-FLAG M2 Affinity Gel (SIGMA) for 4 hrs at 4° C. during rotation. The immunoprecipitates were then washed 3 times in lysis buffer and twice more in kinase buffer (10 mM HEPES, 5 mM MgCl2, 1 mM MnCl2,12.5 mM β-glycerophosphate, 2 mM DTT, 4 mM NaF and 0.1 mM Na3VO4). MKK7 catalytic activity was finally measured in kinase assays by incubating FLAG-MKK7 immunoprecipitates at 30° C. for 20 min with 20 μl of kinase buffer containing 2 μM of recombinant GST-JNK1 and 5 μCi of [γ-^32P]ATP) (kinase reaction), as described in Papa, S et a., (2004) Nat. Cell Biol. 6, 146-153 and references therein.
In some reactions, to test the ability of D-tetrapeptide antagonists to disrupt the Gadd45β-MKK7 interaction and so release the catalytic activity of MKK7 from Gadd45β-afforded inhibition, FLAG-MKK7 immunoprecipitates were 1) first pre-incubated for 10 min at 30° C. with either 1 nM or 5 nM of DTP1, DTP2 or negative control (NC) D-tetrapeptides, NC1, NC2, NC3 and NC4, and 2) then incubated for another 10 min at 30° C. with or without 5 μM of a GST-fusion protein of recombinant human (h)Gadd45β (GST-hGadd45β; purified from bacterial lysates as described in Papa, S., (2007) J. Biol. Chem. 282, 19029-19041), before using them for the kinase reaction described above, as indicated in FIG. 6.
In all cases, kinase reactions were terminated by the addition of Laemmli sample buffer. […] For a further discussion of MKK7 kinase assay conditions, the reader is directed to Papa, S et al., (2007) J. Biol. Chem. 282, 19029-19041 and Papa, S et al., (2004) Nat. Cell Biol. 6, 146-153 and the references therein.

NC(=O)[C@@H](Cc1ccccc1)NC(=O)[C@@H](Cc1c[nH]cn1)NC(=O)[C@@H](CC(=O)O)NC(=O)[C@@H](Cc1ccc(O)cc1)NC(=O)OCc1ccccc1 [Compound 1, Z-Tyr-Asp-His-Phe-NH2] (Cbz-[dY][dD][dH][dF]-NH2)
effects on the IKK/NF-κB, ERK and p38 pathways [1]: no effects were observed | pIC50 (Gadd45β/MKK7 interaction [2]): 9.72 | stability after pre-incubation with human serum (Gadd45β/MKK7 interaction [2]): completely stable

N=C(N)NCCC[C@@H](NC(=O)[C@@H](CCC(=O)O)NC(=O)[C@@H](Cc1ccc(O)cc1)NC(=O)OCc1ccccc1)C(=O)N[C@H](Cc1ccccc1)C(N)=O [Compound 9, Z-D-Tyr-D-Glu-D-Arg-D-Phe-NH2] (Cbz-[dY][dE][dR][dF]-NH2)
pIC50 (Gadd45β/MKK7 interaction [2]): 9.74 | stability after pre-incubation with human serum (Gadd45β/MKK7 interaction [2]): completely stable

CC(=O)N[C@H](Cc1ccc(O)cc1)C(=O)N[C@H](CCCNC(=N)N)C(=O)N[C@H](Cc1ccccc1)C(N)=O [Compound 17, Ac-D-Tyr-D-Arg-D-Phe-NH2] (Ac-[dY]-[dR]-[dF]-NH2)
effects on the IKK/NF-κB, ERK and p38 pathways [1]: no effects were observed

CC(=O)N[C@H](Cc1ccc(O)cc1)C(=O)N[C@H](CC(=O)O)C(=O)N[C@H](Cc1c[nH]cn1)C(=O)N[C@H](Cc1ccccc1)C(N)=O [DTP1, Acetyl-(D-Tyr)-(D-Asp)-(D-His)-(D-Phe)-NH2] (Ac-[dY][dD][dH][dF]-NH2)
disruption of the Gadd45β/MKK7 interaction in co-immunoprecipitation (Gadd45β/MKK7 interaction [3]): no or very little Gadd45β | restoration of MKK7 catalytic activity (Gadd45β-inhibited MKK7): fully restored the catalytic activity of MKK7

CC(=O)N[C@H](Cc1ccc(O)cc1)C(=O)N[C@H](CCC(=O)O)C(=O)N[C@H](CCCNC(=N)N)C(=O)N[C@H](Cc1ccccc1)C(N)=O [DTP2, Acetyl-(D-Tyr)-(D-Glu)-(D-Arg)-(D-Phe)-NH2] (Ac-[dY][dE][dR][dF]-NH2)
disruption of the Gadd45β/MKK7 interaction in co-immunoprecipitation (Gadd45β/MKK7 interaction [3]): no or very little Gadd45β | restoration of MKK7 catalytic activity (Gadd45β-inhibited MKK7): fully restored the catalytic activity of MKK7
